Reference: patent US20230286995A1, “METABOLICALLY STABLE PYRIMIDINYL DIHYDROQUINOXALINONES AS TUBULIN POLYMERIZATION INHIBITORS” (UNIVERSITY OF TENNESSEE RESEARCH FOUNDATION, priority 2022, published 2023)
Entries after “also recorded” stand apart in the source; their conditions may differ. Where two headings read alike, the source gives them in different places.

How the values were obtained:
DU-145 = assay: Cytotoxicity assay (MTS, 72 h); assay type: cell-based; conditions: Homo sapiens, DU-145, read-out: IC50 ± SEM (nM) DU-145; Table 2
PC3 = assay: Cytotoxicity assay (MTS, 72 h); assay type: cell-based; conditions: Homo sapiens, PC-3; Table 6; read-out: IC50 (nM) Prostate cancer PC3
Description: Cytotoxicity Assay. […] Each experiment consisted of four replicates.

Mia PaCa-2 [1] = assay: Cytotoxicity assay (MTS, 72 h); assay type: cell-based; conditions: Homo sapiens, Table 6, read-out: IC50 (nM) Pancreatic cancer Mia PaCa-2
A375/TxR cells = assay: Cell cycle analysis (PI, flow cytometry); assay type: cell-based, human; conditions: 5v 1, 2, 5 nM, 24 h
DU-145/TxR = assay: Cytotoxicity assay (MTS, 72 h); assay type: cell-based; conditions: Homo sapiens, DU-145, read-out: IC50 ± SEM (nM) DU-145/TxR; Table 2
A375 = assay: Cytotoxicity assay (MTS, 72 h); conditions: Homo sapiens;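 further: compounds tested from 0.1 nM up to 3 µM in four replicate wells, with absorbance read at 490 nm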
[2] = target: T1, tubulin protein from bovine brain (Bos taurus, UniProt P81947+Q6B856); assay: Tubulin polymerization assay (FIG. 5A); assay type: biochemical; conditions: 10 μM, cell-free
T1 construct: tubulin protein from bovine brain origin; purchased Cytoskeleton, Denver, Colo; host or cells: bovine brain
Procedure: Tubulin polymerization reaction was initiated by adding 100 μL of tubulin protein from bovine brain origin (3 mg/ml, Cytoskeleton, Denver, Colo.) into 10 μM of test compounds in general tubulin buffer (80 mM PIPES, 2.0 mM MgCl2, 0.5 mM EGTA, and 1 mM GTP) according to the manufacturer protocol. The reaction kinetics were recorded in every thirty seconds for 1 h at 37° C. and a microplate reader equipped with absorbance settings at 340 nm wavelength was used for this purpose. The experiment was performed in duplicates.

A-253 and Detroit 562 = assay: Cytotoxicity in head and neck cancer cell lines; assay type: cell-based; conditions: Homo sapiens; FIG. 39A; read-out: IC50 values, range over A-253 and Detroit 562
Procedure: A panel of dihydroquinoxalinones were tested in two head and neck cancer cell lines, A-253 and Detroit 562. A-253 cells are a human salivary epidermoid carcinoma cell line, whereas Detroit 562 is a head and neck squamous cell carcinoma (HNSCC). Oral cancer is the most common type of head and neck cancer and more than 90% of oral cancers are either oral or oropharyngeal squamous cell carcinoma (SCC). A major clinical dilemma is chemotherapy efficiency targeted for head and neck squamous cell carcinoma (HNSCC). The inability to successfully complete cancer treatment utilizing a standard surgical approach due to an advanced stage of HNSCC and/or resistance of SCC cells to conventional chemotherapy and/or radiotherapy leads to a continuous search for new compounds with cytostatic activity and minor side effects.
FIGS. 39B and 39C illustrate the graphical representation of the data. […] For example, at treatment levels as low of 0.5 nM, 12k was able to prevent head and neck cancer cell proliferation almost completely, whereas it required 5 nM of 17ya to achieve similar antiproliferation.

A549/TxR = assay: cells; conditions: Homo sapiens, read-out: IC50 ± SEM (nM) A549/TxR
in vitro = conditions: rat, liver microsomes
22RV1 xenografts = assay: 22RV1 prostate cancer xenograft model; assay type: in vivo, NSG mice; conditions: 1 mg/kg IV, 2 times/week
Procedure: FIG. 19D: Similarly, for 22RV1 prostate cancer xenograft model, we inoculated 2.5×10^6 22RV1 cells subcutaneously into the right flank of each mouse. The cells were prepared in the mixture of FBS and phenol red-free DMEM medium and Matrigel (1:1 ratio). […] We measured tumor volume 2 times a week until reaching the study endpoint.

[3] = tested on: A2780/TxR ovarian cancer xenografts; assay: Orthotopic A2780/TxR ovarian cancer xenograft model; conditions: 5m 1 mg/kg IV; Compound 17ya 20 mg/kg PO; 3 weeks
[4] = tested on: MDA-MB-231/VxR xenografts; assay: Orthotopic MDA-MB-231/VxR xenograft model; assay type: in vivo, NSG mice; conditions: 5m IV 1×/wk; Compound 17ya 20 mg/kg 3×/wk
Mia PaCa-2 cells = assay: Scratch migration assay (PDAC); assay type: cell-based, human; conditions: 5m 2 nM, PTX 4 nM, 48 h
Procedure: The Mia PaCa-2 cells (25,000 cells/well) were seeded in 96-well plates and allowed to adhere overnight. At 80-90% confluence, scratch was made with a wound maker. After washing off the debris, medium was replaced and tested compounds were added. Cells were live monitored with IncuCyte and pictures obtained every 2 h. Compared with the control, the wound width of cells under different treatment conditions was quantified according to the endpoint width over starting point.

PANC-1-Luc xenografts = assay: PANC-1-Luc subcutaneous xenograft model; assay type: in vivo, NSG mice
Procedure: All animal procedures were performed in accordance with the protocols approved by the Institutional Animal Care and Use Committee (IACUC) at UTHSC. Two pancreatic cancer cell lines, Mia PaCa-2-Luc and PANC-1-Luc, were used in this study. 50 μL of Mia PaCa-2-Luc (5×10^6 cells in HBSS) or PANC-1-Luc (3×10^6 cells in HBSS) cell suspension was mixed with same volume of Matrigel (1:1 mixture) right before use. Cell mixture was subcutaneously injected to the right flank of each NSG mice (male, 6-8 weeks). […] The control group received no treatment. Treatment started when the average tumor size reached 70-100 mm^3. […] Tumor volume and body weight were measured twice per week. Tumor volume was calculated by the equation: volume (mm^3)=0.5×(length×width^2). All animals were euthanized at the end of the study. Tumors were excised, recorded for ex-vivo weight and size, and imaged.

Mia PaCa-2 [5] = assay: Colony formation assay (PDAC); assay type: cell-based, human; conditions: tested 1, 2.5, 5 nM
Procedure: Cells were seeded at 1000 cells per well in 6-well plates in triplicates and treated with vehicle control or 1-5 nmol/L test compounds for 11 to 14 days. The colonies were fixed with 100% methanol and stained with 0.5% crystal violet. Colony area was quantified with Image J software.

[6] = Toxicity of 5m at higher dose in mice; assay type: in vivo; conditions: 5 mg/kg

T1 sequence (P81947 whole entry): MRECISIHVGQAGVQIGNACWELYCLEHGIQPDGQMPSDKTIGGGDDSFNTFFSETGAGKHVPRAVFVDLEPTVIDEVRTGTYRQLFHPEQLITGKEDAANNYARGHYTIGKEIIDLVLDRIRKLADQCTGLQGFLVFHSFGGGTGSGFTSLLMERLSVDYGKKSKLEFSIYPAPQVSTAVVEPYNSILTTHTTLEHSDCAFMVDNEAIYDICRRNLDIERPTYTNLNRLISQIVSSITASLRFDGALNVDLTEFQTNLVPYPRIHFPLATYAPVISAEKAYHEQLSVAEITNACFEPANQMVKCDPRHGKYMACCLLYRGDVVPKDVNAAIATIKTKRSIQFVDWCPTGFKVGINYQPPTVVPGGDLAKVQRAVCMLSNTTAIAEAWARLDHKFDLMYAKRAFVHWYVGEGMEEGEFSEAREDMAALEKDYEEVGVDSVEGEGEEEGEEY
T1 sequence (Q6B856 whole entry): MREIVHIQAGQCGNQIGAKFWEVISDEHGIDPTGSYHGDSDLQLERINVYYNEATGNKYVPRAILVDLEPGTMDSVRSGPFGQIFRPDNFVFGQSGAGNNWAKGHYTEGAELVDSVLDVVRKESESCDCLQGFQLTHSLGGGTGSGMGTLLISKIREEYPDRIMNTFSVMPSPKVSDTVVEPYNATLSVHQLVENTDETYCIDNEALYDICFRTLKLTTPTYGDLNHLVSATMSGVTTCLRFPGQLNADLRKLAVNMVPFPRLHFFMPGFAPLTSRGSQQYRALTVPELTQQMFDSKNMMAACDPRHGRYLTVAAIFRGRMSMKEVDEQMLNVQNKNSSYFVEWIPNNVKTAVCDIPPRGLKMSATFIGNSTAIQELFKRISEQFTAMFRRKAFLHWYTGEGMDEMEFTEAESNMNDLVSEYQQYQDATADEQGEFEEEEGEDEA

CCNc1nc2c(c(N3CC(=O)Nc4cc(OC)ccc43)n1)CCC2 [Compound 5v, 4-(2-(ethylamino)-6,7-dihydro-5H-cyclopenta[d]pyrimidin-4-yl)-7-methoxy-3,4-dihydroquinoxalin-2(1H)-one]
IC50 (DU-145): 1.8 ± 0.3 nM
IC50 (PC3): 1.7 ± 0.1 nM
IC50 (Mia PaCa-2 [1]): 3.4 ± 0.4 nM
G2/M phase arrest (A375/TxR cells): arrested in the G2/M phase to increase dramatically
IC50 (DU-145/TxR): 1.9 ± 0.3 nM
IC50 (A375; A-375, read-out: IC50 (nM) Melanoma A375, Table 1): 0.7 ± 0.1 nM
IC50 (A375; A-375, read-out: IC50 (nM) Melanoma Cancer A375, Table 6): ~1.6 nM
IC50 (A375; A-375, read-out: IC50 ± SEM (nM) A375, Table 2): 0.4 ± 0.04 nM

COc1ccc2c(c1)NC(=O)CN2c1nc(C)nc2c1CCC2 [Compound 5m, 7-methoxy-4-(2-methyl-6,7-dihydro-5H-cyclopenta[d]pyrimidin-4-yl)-3,4-dihydroquinoxalin-2(1H)-one]
effect on microtubule polymerization [2]: significantly inhibited microtubule polymerization
IC50 (A-253 and Detroit 562): 0.52 to 3.2 nM
IC50 (A549/TxR): 2.8 ± 1.1 nM
CLint scaled at 1 μg/mL (in vitro): 86.9 mL/min/kg
growth of 22RV1 xenografts (22RV1 xenografts): remarkable in inhibiting the growth of 22RV1 xenografts
mice having visible tumor [3]: 1 of 5
tumor growth of MDA-MB-231/VxR xenografts [4]: flat tumor growth curve
cell migration / wound healing (Mia PaCa-2 cells): more effectively inhibited wound healing
xenograft tumor growth (PANC-1-Luc xenografts; 1 mg/kg or 2 mg/kg i.v., 1 dose/week for 7 weeks): dose-dependent and significant inhibition of xenograft tumor growth; also recorded: dose-dependently inhibited xenograft tumor growth
body weight vs control (PANC-1-Luc xenografts; 49 days, two doses): no differences seen in body weight
dose at which colony formation was completely inhibited (Mia PaCa-2 [5]): 1 nM
toxicity at higher dose [6]: had toxicity
